Assay [1] deals with HeLa (cervical cancer cell line). The assay is described as follows: MTT cell viability assay, HeLa. The class given is cell-based. The note with it: Homo sapiens, 48 h, read-out: Antiproliferative Activity IC50 ± SEM, HeLa. The procedure: (§1) The tested cells were obtained from Shanghai Institute of Biochemistry and Cell Biology of the Chinese Academy of Sciences (Shanghai, China). HeLa and Hep G2 cell lines were cultured in Dulbecco’s modified Eagle’s medium (DMEM; gibco, Life Technologies, Carlsbad, CA, USA) supplemented with 10% fetal bovine serum (FBS; Biological Industries), 100 U/mL penicillin-streptomycin (PS; gibco, Life Technologies, Carlsbad, CA, USA). MCF-7 and A549 cell lines were maintained in RPMI-1640 media (gibco, Life Technologies, Carlsbad, CA, USA) supplemented with 10% FBS and 100 U/mL PS. FaDu cell lines were cultured in minimum essential medium (MEM; Gibco, Life Technologies, Carlsbad, CA, USA) supplemented with 10% FBS and 100 U/mL PS. MCF 10A cell lines were maintained in Mammary MEGM kit (Lonza/Clonetics) supplemented with 100 ng/mL cholera toxin (Sigma, Shanghai, China). Cell lines were grown at 37 °C in a humidified atmosphere of 5% CO2.
(§2) The growth-inhibitory effects against HeLa, Hep G2, MCF-7, FaDu, and A549 cancer cells and normal cell lines MCF 10A were determined by MTT assay. […] Cells were seeded in 96 well plates at a density of 1 × 10^4 cells per well and incubated for 24 h at 37 °C in a humidified atmosphere of 5% CO2. The cells were then incubated with various concentrations of drugs for 48 h in a 5% CO2 incubator at 37 °C. After treatment with 1 mg/mL 3-(4,5-dimethylthiazol-2-yl)-2,5-diphenyltetrazolium bromide (MTT) solution for 4 h, the formazan crystals were dissolved in 100 µL DMSO in each well. Plates were read on a microplate reader (Thermo Varioskan Flash 3001) at 490 nm. The experiment was performed in triplicate. The inhibitory concentration at 50% (IC50) was calculated based on concentration-inhibition relationships via regression using SPSS software (Version 17.0).
A general note: Tetrazolium dyes change colour on reduction, which living cells bring about.

In assay [2] the test system is Hep G2 (hepatocarcinoma cell line). The experiment in a line: MTT cell viability assay, Hep G2. The class given is cell-based. The note with it: Homo sapiens, HepG2, 48 h, read-out: Antiproliferative Activity IC50 ± SEM, Hep G2. The procedure: as §1, §2
For assay [3], the system named is MCF-7 (breast cancer cell line). The experiment in a line: MTT cell viability assay, MCF-7. The class given is cell-based. The following applies: Homo sapiens, MCF7, 48 h, read-out: Antiproliferative Activity IC50 ± SEM, MCF-7. The procedure:
as §1, §2

Assay [4] concerns FaDu (head and neck squamous carcinoma cell line). The assay is described as follows: MTT cell viability assay, FaDu. The class given is cell-based, human. The following applies: for IC50: 48 h, MTT, read-out: Antiproliferative Activity IC50 ± SEM, FaDu; for SI: selectivity index: SI = IC50 (MCF 10A)/IC50 (FaDu). The procedure:
as §1, §2

The subject of assay [5] is A549 (epithelial cancer cell line). The experiment in a line: MTT cell viability assay, A549. It is filed as cell-based. The following applies: Homo sapiens, 48 h, read-out: Antiproliferative Activity IC50 ± SEM, A549. The procedure: as §1, §2
Assay [6] has as its system MCF 10A (normal mammary epithelial cell). The assay is described as follows: MTT cell viability assay, MCF 10A. It is filed as cell-based. The note with it: Homo sapiens, 48 h, normal cells, read-out: Antiproliferative Activity IC50 ± SEM, MCF 10A.

Each structure is given as a SMILES string. Where two headings read alike, the source gives them in different places. Some results are limits rather than exact numbers.

In the case of `O=C(NCCCCCCCCCCNC(=O)c1ccco1)c1ccco1` [Compound 14e, N,N′-(Decane-1,10-Diyl)Bis(Furan-2-Carboxamide)], the IC50 – broadly, the concentration that inhibits the measured activity by half – in assay [1] is greater than 100 µM; in assay [2] it was 97.8 ± 1.55 µM; in assay [3], greater than 100 µM; in assay [4] (Homo sapiens, FaDu), 6.33 ± 0.65 µM; in assay [5], 44.37 ± 0.29 µM; in assay [6], 19.8 ± 1.41 µM. Also, the “SI: selectivity index” value in assay [4] stood at 3.13.
For `COc1cc(/C=C/C(=O)NCCCCCCCCCCNC(=O)/C=C/c2cc(OC)c(O)c(OC)c2)cc(OC)c1O` [Compound 28e, (2E,2′E)-N,N′-(Decane-1,10-Diyl)Bis(3-(4-Hydroxy-3,5-Dimethoxyphenyl)Acrylamide)], the IC50 in assay [1] is greater than 20 µM; in assay [2] it was greater than 20 µM; in assay [3], greater than 20 µM; in assay [4] (Homo sapiens, FaDu), greater than 20 µM; in assay [5] it was greater than 20 µM; in assay [6], greater than 20 µM.
Turning to `Cc1nc(C)c(C(=O)NCCCCCCNC(=O)c2nc(C)c(C)nc2C)nc1C` [Compound 8c, N,N′-(Hexane-1,6-Diyl)Bis(3,5,6-Trimethylpyrazine-2-Carboxamide)], the concentration for half-maximal inhibition (IC50) in assay [1] is greater than 100 µM; in assay [2] it was greater than 100 µM; in assay [3], greater than 100 µM; in assay [4] (Homo sapiens, FaDu), 80.4 ± 1.36 µM; in assay [5] it was greater than 100 µM; in assay [6], 46.6 ± 0.65 µM.
In the case of `O=C(NCCCCCCCCCCNC(=O)c1cc2ccccc2oc1=O)c1cc2ccccc2oc1=O` [Compound 20e, N,N′-(Decane-1,10-Diyl)Bis(2-Oxo-2H-Chromene-3-Carboxamide)], the IC50 in assay [1] was greater than 20 µM; in assay [2] it was greater than 20 µM; in assay [3] it was greater than 20 µM; in assay [4] (Homo sapiens, FaDu) it was greater than 20 µM; in assay [5], greater than 20 µM; in assay [6], greater than 20 µM.
Consider `O=C(NCCCCCCCCCCNC(=O)c1ccc2nc[nH]c2c1)c1ccc2nc[nH]c2c1` [Compound 19e, N,N′-(Decane-1,10-Diyl)Bis(1H-Benzo[d]Imidazole-6-Carboxamide)], for which the IC50 in assay [1] is greater than 20 µM; in assay [2] it was greater than 20 µM; in assay [3] it was greater than 20 µM; in assay [4] (Homo sapiens, FaDu) it was 8.74 ± 0.44 µM; in assay [5] it was greater than 20 µM; in assay [6], greater than 20 µM. Besides, the “SI: selectivity index” value in assay [4] was greater than 2.29.
`O=C(NCCCCCCCCCCNC(=O)c1cc2ccccc2s1)c1cc2ccccc2s1` [Compound 22e, N,N′-(Decane-1,10-Diyl)Bis(Benzo[b]Thiophene-2-Carboxamide)]: the half-inhibitory concentration (IC50) in assay [1], in assay [2], in assay [3], in assay [5] and in assay [6] was greater than 20 µM throughout. Moreover, the “SI: selectivity index” value in assay [4] was greater than 1000.
Turning to `O=C(/C=C/c1ccccc1)OCCOCCOCCOC(=O)/C=C/c1ccccc1` [Compound 9l, (Ethane-1,2-Diylbis(Oxy))Bis(Ethane-2,1-Diyl) (2E,2′E)-Bis(3-Phenylacrylate)], the IC50 is greater than 20 µM in assay [1]; greater than 20 µM in assay [2]; greater than 20 µM in assay [3]; greater than 20 µM in assay [4] (Homo sapiens, FaDu); greater than 20 µM in assay [5]; greater than 20 µM in assay [6].
For `COc1ccc(/C=C/C(=O)NCCCCCCCCCCNC(=O)/C=C/c2ccc(OC)c(OC)c2)cc1OC` [Compound 27e, (2E,2′E)-N,N′-(Decane-1,10-Diyl)Bis(3-(3,4-Dimethoxyphenyl)Acrylamide)], the IC50 in assay [1] is greater than 20 µM; in assay [2], greater than 20 µM; in assay [3] it was greater than 20 µM; in assay [4] (Homo sapiens, FaDu), 4.62 ± 0.539 µM; in assay [5], greater than 20 µM; in assay [6], greater than 20 µM. The “SI: selectivity index” value in assay [4] is reported as greater than 4.33.
Turning to `O=C(NCCCCCCCCCCNC(=O)c1ccc2ncccc2c1)c1ccc2ncccc2c1` [Compound 18e, N,N′-(Decane-1,10-Diyl)Bis(Quinoline-6-Carboxamide)], the IC50 in assay [1] is greater than 20 µM; in assay [2], greater than 20 µM; in assay [3], greater than 20 µM; in assay [4] (Homo sapiens, FaDu), less than 1 µM; in assay [4], 0.697 ± 0.021 µM; in assay [5], greater than 20 µM. Besides, the IC50 in assay [6] is greater than 20 µM. In addition, the “SI: selectivity index” value in assay [4] is given as greater than 28.69.
Consider `Cc1nc(C)c(CN2CCN(Cc3nc(C)c(C)nc3C)CC2)nc1C` [Compound 6h, 1,4-Bis((3,5,6-Trimethylpyrazin-2-yl)Methyl)Piperazine], for which the IC50 in assay [1] was greater than 100 µM; in assay [2], greater than 100 µM; in assay [3], greater than 100 µM; in assay [4] (Homo sapiens, FaDu) it was greater than 100 µM; in assay [5], greater than 100 µM; in assay [6] it was greater than 100 µM.
In the case of `O=C(/C=C/c1ccccc1)NCCCCCCCCCCCCNC(=O)/C=C/c1ccccc1` [Compound 9f, (2E,2′E)-N,N′-(Dodecane-1,12-Diyl)Bis(3-Phenylacrylamide)], the IC50 was greater than 20 µM in assay [1]; greater than 20 µM in assay [2]; greater than 20 µM in assay [3]; 0.027 ± 0.002 µM in assay [4] (Homo sapiens, FaDu); greater than 20 µM in assay [5]; greater than 20 µM in assay [6]. In addition, the “SI: selectivity index” value in assay [4] is on record as greater than 740.74.
As to `Cc1nc(C)c(CN(CCCN(Cc2nc(C)c(C)nc2C)Cc2nc(C)c(C)nc2C)Cc2nc(C)c(C)nc2C)nc1C` [Compound 6b, N^1,N^1,N^3,N^3-Tetrakis((3,5,6-Trimethylpyrazin-2-yl)Methyl)Propane-1,3-Diamine], the IC50 in assay [1] was greater than 100 µM; in assay [2] it was greater than 100 µM; in assay [3], greater than 100 µM; in assay [4] (Homo sapiens, FaDu), greater than 100 µM; in assay [5], greater than 100 µM; in assay [6], greater than 100 µM.
Take `Cc1nc(C)c(C(=O)NCCCCNC(=O)c2nc(C)c(C)nc2C)nc1C` [Compound 8b, N,N′-(Butane-1,4-Diyl)Bis(3,5,6-Trimethylpyrazine-2-Carboxamide)]: the IC50 is greater than 100 µM in assay [1]; greater than 100 µM in assay [2]; greater than 100 µM in assay [3]; greater than 100 µM in assay [4] (Homo sapiens, FaDu); greater than 100 µM in assay [5]; greater than 100 µM in assay [6].
As for `Nc1ccccc1C(=O)NCCCCCCCCCCNC(=O)c1ccccc1N` [Compound 30e, N,N′-(Decane-1,10-Diyl)Bis(2-Aminobenzamide)], the IC50 in assay [1] is greater than 20 µM; in assay [2], greater than 20 µM; in assay [3], greater than 20 µM; in assay [4] (Homo sapiens, FaDu), greater than 20 µM; in assay [5] it was greater than 20 µM; in assay [6], greater than 20 µM.
Take `O=C(/C=C/c1ccccc1)NCCOCCOCCOCCNC(=O)/C=C/c1ccccc1` [Compound 9k, (2E,2′E)-N,N′-(((Oxybis(Ethane-2,1-Diyl))Bis(Oxy))Bis(Ethane-2,1-Diyl))Bis(3-Phenylacrylamide)]: the IC50 in assay [1] is greater than 20 µM; in assay [2] it was greater than 20 µM; in assay [3], greater than 20 µM; in assay [4] (Homo sapiens, FaDu), 4.45 ± 0.208 µM; in assay [5], greater than 20 µM; in assay [6] it was greater than 20 µM. In assay [4], the “SI: selectivity index” value was greater than 4.50.
Turning to `O=C(NCCCCCCCCCCNC(=O)c1cnc2ccccc2c1)c1cnc2ccccc2c1` [Compound 17e, N,N′-(Decane-1,10-Diyl)Bis(Quinoline-3-Carboxamide)], the IC50 in assay [1], in assay [2], in assay [3], in assay [5] and in assay [6] was greater than 20 µM in each case. For the same compound, in assay [4], the “SI: selectivity index” value is recorded as greater than 84.75.
`COc1ccc(C(=O)NCCCCCCCCCCNC(=O)c2ccc(OC)c(OC)c2OC)c(OC)c1OC` [Compound 35e, N,N′-(Decane-1,10-Diyl)Bis(2,3,4-Trimethoxybenzamide)]: the IC50 was greater than 20 µM in assay [1]; greater than 20 µM in assay [2]; greater than 20 µM in assay [3]; greater than 20 µM in assay [4] (Homo sapiens, FaDu); greater than 20 µM in assay [5]; greater than 20 µM in assay [6].
`O=C(NCCCCCCCCCCNC(=O)c1cnccn1)c1cnccn1` [Compound 16e, N,N′-(Decane-1,10-Diyl)Bis(Pyrazine-2-Carboxamide)]: the IC50 in assay [1] was greater than 100 µM; in assay [2], greater than 100 µM; in assay [3], greater than 100 µM; in assay [4] (Homo sapiens, FaDu) it was 88.1 ± 1.37 µM; in assay [5], greater than 100 µM; in assay [6] it was greater than 100 µM.

Source of the values: paper PMC6943434, “Novel Homo-Bivalent and Polyvalent Compounds Based on Ligustrazine and Heterocyclic Ring as Anticancer Agents” (Molecules, 2019).
